Species: Rattus norvegicus
Assay: DrugMatrix - Regimen: Daily Repeat
Assay type: toxicity, organism-based, Sprague-Dawley
Parameters: regimen Daily Repeat, gender Male, age 6-8 weeks
Details: in vivo, po, 17 mg/kg, route oral GAVAGE, dose level High, vehicle .5 % CMC; for ABSOLUTE BASOPHIL / ABSOLUTE EOSINOPHIL / ABSOLUTE LYMPHOCYTE / ABSOLUTE MONOCYTE / ABSOLUTE SEGMENTED NEUTROPHIL / BASOPHIL / EOSINOPHIL / ERYTHROCYTE COUNT / HEMATOCRIT / HEMOGLOBIN / LEUKOCYTE COUNT / LYMPHOCYTE / MEAN CORPUSCULAR HEMOGLOBIN / MEAN CORPUSCULAR HEMOGLOBIN CONCENTRATION / MEAN CORPUSCULAR VOLUME / MONOCYTE / NEUTROPHIL / NUCLEATED RED BLOOD CELLS / PLATELET COUNT: tissue Blood; for ALANINE AMINOTRANSFERASE / ALBUMIN / ALKALINE PHOSPHATASE / ASPARTATE AMINOTRANSFERASE / BLOOD UREA NITROGEN / CARBON DIOXIDE / CHLORIDE / CHOLESTEROL / CREATININE / GLUCOSE / LACTATE DEHYDROGENASE / LIPASE / PHOSPHORUS / POTASSIUM / SODIUM / TOTAL BILIRUBIN / TOTAL PROTEIN / URIC ACID: tissue Plasma

COc1ccc(C(=O)Nc2c(Cl)cncc2Cl)cc1OC1CCCC1
ABSOLUTE BASOPHIL (120 h, time 5 day): 0 CELLS/uL
ABSOLUTE EOSINOPHIL (120 h, time 5 day): 84.67 CELLS/uL
ABSOLUTE LYMPHOCYTE (120 h, time 5 day): 11281 CELLS/uL
ABSOLUTE MONOCYTE (120 h, time 5 day): 472.33 CELLS/uL
ABSOLUTE SEGMENTED NEUTROPHIL (120 h, time 5 day): 1195.33 CELLS/uL
BASOPHIL (120 h, time 5 day): 0%
EOSINOPHIL (120 h, time 5 day): 0.67%
ERYTHROCYTE COUNT (120 h, time 5 day): 6 x10E6/uL
HEMATOCRIT (120 h, time 5 day): 36.73%
HEMOGLOBIN (120 h, time 5 day): 13.33 G/DL
LEUKOCYTE COUNT (120 h, time 5 day): 13.03 x10E3/uL
LYMPHOCYTE (120 h, time 5 day): 86.33%
MEAN CORPUSCULAR HEMOGLOBIN (120 h, time 5 day): 22.23 pg
MEAN CORPUSCULAR HEMOGLOBIN CONCENTRATION (120 h, time 5 day): 36.3 G/DL
MEAN CORPUSCULAR VOLUME (120 h, time 5 day): 61.23 fL
MONOCYTE (120 h, time 5 day): 3.67%
NEUTROPHIL (120 h, time 5 day): 9.33%
NUCLEATED RED BLOOD CELLS (120 h, time 5 day): 0 /100WBC
PLATELET COUNT (120 h, time 5 day): 1070.67 x10E3/uL
ALANINE AMINOTRANSFERASE (120 h, time 5 day): 64 u/L
ALBUMIN (120 h, time 5 day): 4.1 G/DL
ALKALINE PHOSPHATASE (120 h, time 5 day): 400 u/L
ASPARTATE AMINOTRANSFERASE (120 h, time 5 day): 136.33 u/L
BLOOD UREA NITROGEN (120 h, time 5 day): 13 mg/dL
CARBON DIOXIDE (120 h, time 5 day): 34.33 mmol/L
CHLORIDE (120 h, time 5 day): 101 MEQ/L
CHOLESTEROL (120 h, time 5 day): 65.33 mg/dL
CREATININE (120 h, time 5 day): 0.19 mg/dL
GLUCOSE (120 h, time 5 day): 166.33 mg/dL
LACTATE DEHYDROGENASE (120 h, time 5 day): 276.33 u/L
LIPASE (120 h, time 5 day): 8.33 u/L
PHOSPHORUS (120 h, time 5 day): 11.3 mg/dL
POTASSIUM (120 h, time 5 day): 6.12 MEQ/L
SODIUM (120 h, time 5 day): 149.43 MEQ/L
TOTAL BILIRUBIN (120 h, time 5 day): 0.2 mg/dL
TOTAL PROTEIN (120 h, time 5 day): 6.63 G/DL
URIC ACID (120 h, time 5 day): 1.5 mg/dL
ABSOLUTE BASOPHIL ([…], time 14 day): 0 CELLS/uL
ABSOLUTE EOSINOPHIL ([…], time 14 day): 107.5 CELLS/uL
ABSOLUTE LYMPHOCYTE ([…], time 14 day): 9595.25 CELLS/uL
ABSOLUTE MONOCYTE ([…], time 14 day): 1138.5 CELLS/uL
ABSOLUTE SEGMENTED NEUTROPHIL ([…], time 14 day): 8133.75 CELLS/uL
BASOPHIL ([…], time 14 day): 0%
EOSINOPHIL ([…], time 14 day): 0.5%
ERYTHROCYTE COUNT ([…], time 14 day): 6.06 x10E6/uL
HEMATOCRIT ([…], time 14 day): 34.55%
HEMOGLOBIN ([…], time 14 day): 12.95 G/DL
LEUKOCYTE COUNT ([…], time 14 day): 18.98 x10E3/uL
LYMPHOCYTE ([…], time 14 day): 60.25%
MEAN CORPUSCULAR HEMOGLOBIN ([…], time 14 day): 21.4 pg
MEAN CORPUSCULAR HEMOGLOBIN CONCENTRATION ([…], time 14 day): 37.5 G/DL
MEAN CORPUSCULAR VOLUME ([…], time 14 day): 57.05 fL
MONOCYTE ([…], time 14 day): 5%
NEUTROPHIL ([…], time 14 day): 34.25%
NUCLEATED RED BLOOD CELLS ([…], time 14 day): 0 /100WBC
PLATELET COUNT ([…], time 14 day): 1068 x10E3/uL
ALANINE AMINOTRANSFERASE ([…], time 14 day): 48.25 u/L
ALBUMIN ([…], time 14 day): 3.22 G/DL
ALKALINE PHOSPHATASE ([…], time 14 day): 273 u/L
ASPARTATE AMINOTRANSFERASE ([…], time 14 day): 67 u/L
BLOOD UREA NITROGEN ([…], time 14 day): 14.25 mg/dL
CARBON DIOXIDE ([…], time 14 day): 33.75 mmol/L
CHLORIDE ([…], time 14 day): 100.5 MEQ/L
CHOLESTEROL ([…], time 14 day): 56 mg/dL
CREATININE ([…], time 14 day): 0.24 mg/dL
GLUCOSE ([…], time 14 day): 131 mg/dL
LACTATE DEHYDROGENASE ([…], time 14 day): 107.75 u/L
LIPASE ([…], time 14 day): 9 u/L
PHOSPHORUS ([…], time 14 day): 8.28 mg/dL
POTASSIUM ([…], time 14 day): 5.54 MEQ/L
SODIUM ([…], time 14 day): 148.15 MEQ/L
TOTAL BILIRUBIN ([…], time 14 day): 0.18 mg/dL
TOTAL PROTEIN ([…], time 14 day): 6.12 G/DL
URIC ACID ([…], time 14 day): 0.62 mg/dL

Reference: ChEMBL document CHEMBL3885881, “DrugMatrix”
